Measurements reported in ChEMBL document CHEMBL3045305, “Synthesis, anticancer and antibacterial activities of piperine analogs” (Med Chem Res, 2013).
Values after ≈ are worked out from the molar mass of the structure shown.

Tests used:
Type in all cases: functional
Shigella dysenteriae = experiment: Antibacterial activity against Shigella dysenteriae assessed as growth inhibition after 24 hr by two-fold serial dilution method
Bacillus subtilis = experiment: Antibacterial activity against Bacillus subtilis assessed as growth inhibition after 24 hr by two fold serial dilution method
Escherichia coli = experiment: Antibacterial activity against Escherichia coli assessed as growth inhibition after 24 hr by two-fold serial dilution method
Staphylococcus aureus = experiment: Antibacterial activity against Staphylococcus aureus assessed as growth inhibition after 24 hr by two fold serial dilution method
Salmonella typhi = experiment: Antibacterial activity against Salmonella enterica subsp. enterica serovar Typhi assessed as growth inhibition after 24 hr by two fold serial dilution method
Pseudomonas aeruginosa = experiment: Antibacterial activity against Pseudomonas aeruginosa assessed as growth inhibition after 24 hr by two-fold serial dilution method
Klebsiella pneumoniae = experiment: Antibacterial activity against Klebsiella pneumoniae assessed as growth inhibition after 24 hr by two-fold serial dilution method

| SMILES | MIC (Shigella dysenteriae) [mg/L] | MIC (Bacillus subtilis) [mg/L] | MIC (Escherichia coli) [mg/L] | MIC (Staphylococcus aureus) [mg/L] | MIC (Salmonella typhi) [mg/L] | MIC (Pseudomonas aeruginosa) [mg/L] | MIC (Klebsiella pneumoniae) [mg/L] |
| --- | --- | --- | --- | --- | --- | --- | --- |
| O=C(/C=C/C=C/c1ccc2c(c1)OCO2)N[C@@H](Cc1cnc[nH]1)C(=O)O | 200 (≈ 563 µM) | 300 (≈ 844 µM) | 200 (≈ 563 µM) | 300 (≈ 844 µM) | 300 (≈ 844 µM) | 300 (≈ 844 µM) | 300 (≈ 844 µM) |
| O=C(/C=C/C=C/c1ccc2c(c1)OCO2)N[C@@H](Cc1c[nH]c2ccccc12)C(=O)O | 300 (≈ 742 µM) | 400 (≈ 989 µM) | 400 (≈ 989 µM) | 300 (≈ 742 µM) | 200 (≈ 495 µM) | 200 (≈ 495 µM) | 200 (≈ 495 µM) |
| O=C(/C=C/C=C/c1ccc2c(c1)OCO2)Nc1ccc(Br)cc1 | 300 (≈ 806 µM) | 500 (≈ 1340 µM) | 200 (≈ 537 µM) | 300 (≈ 806 µM) | 300 (≈ 806 µM) | 500 (≈ 1340 µM) | 100 (≈ 269 µM) |
| O=C(/C=C/C=C/c1ccc2c(c1)OCO2)N[C@@H](Cc1ccccc1)C(=O)O | 150 (≈ 411 µM) | 400 (≈ 1090 µM) | 300 (≈ 821 µM) | 400 (≈ 1090 µM) | 200 (≈ 547 µM) | 400 (≈ 1090 µM) | 300 (≈ 821 µM) |
| CC1(C)S[C@@H]2[C@H](NC(=O)[C@H](N)c3ccccc3)C(=O)N2[C@H]1C(=O)O [AMPICILLIN] | 16 (≈ 45.8 µM) | 10 (≈ 28.6 µM) | 5 (≈ 14.3 µM) | 11 (≈ 31.5 µM) | 15 (≈ 42.9 µM) | 50 (≈ 143 µM) | 8 (≈ 22.9 µM) |
| O=C(/C=C/C=C/c1ccc2c(c1)OCO2)N1CCCCC1 [PIPERINE] | 600 (≈ 2100 µM) | 500 (≈ 1750 µM) | 300 (≈ 1050 µM) | 300 (≈ 1050 µM) | 200 (≈ 701 µM) | 100 (≈ 350 µM) | 200 (≈ 701 µM) |
| O=C(/C=C/C=C/c1ccc2c(c1)OCO2)Nc1ccc(Cl)cc1 | 200 (≈ 610 µM) | 500 (≈ 1530 µM) | 100 (≈ 305 µM) | 200 (≈ 610 µM) | 400 (≈ 1220 µM) | 200 (≈ 610 µM) | 300 (≈ 915 µM) |
